PubChem BioAssay AID1850 (Southern Research Specialized Biocontainment Screening …, 2009)
pIC50: −log10 of the molar value.

These molecules were tested on Salmonella Typhi PhoP-promoter GFP reporter, fluorescence, 4 h (assay: PhoP regulon inhibitors, Salmonella typhi PhoP promoter GFP reporter, confirmatory (AID 1850)).

| SMILES | pIC50 |
| --- | --- |
| C[C@H]1COc2c(N3CCN(C)CC3)c(F)cc3c(=O)c(C(=O)O)cn1c23 | > 6.64 |
| Oc1ccccc1Nc1nc(NCc2ccco2)c2ccccc2n1 | 4.46 |
| CN1CCN(/N=C/c2c3ccccc3c(Cl)c3ccccc23)CC1 | 4.13 |
| COc1ccc(CNCCc2cccc(F)c2)c2ccccc12 | 4.13 |
| Clc1ccc(OCCCNCc2ccccc2)c(Br)c1 | 4.42 |
| N/C(=N\OS(=O)(=O)c1ccc2ccccc2c1)c1cccnc1 | 4.68 |
| Nc1cccc2nc3ccccc3cc12 | 4.45 |
| CCCCC(=O)NC(=S)NNC(=O)CC | 4.15 |
| COc1cc([N+](=O)[O-])cc(/C=N/NC(=O)CSc2ccccn2)c1O | 3.90 |
| COc1cc2c3cc1Oc1cc(ccc1O)C[C@@H]1c4c(cc(OC)c(O)c4Oc4ccc(cc4)C[C@H]3N(C)CC2)CCN1C | 3.84 |
| CCc1ccc(-c2nn(-c3ccccc3)cc2CSC(=N)N)cc1 | 4.49 |
| CCn1cc(C(=O)O)c(=O)c2cnc(N3CCNCC3)nc21 | 4.59 |
| NC(=O)SCC(=O)Nc1cccc(Cl)c1 | 5.04 |
| O=C(Nc1ccc(Cc2ccncc2)cc1)c1ccc([N+](=O)[O-])o1 | 4.10 |
| O=C(NC(=S)NNC(=O)c1ccccc1O)c1ccco1 | 4.53 |
| Cc1cc(C)n(/N=C/c2cc(Cl)cc(Cl)c2O)c(=O)c1 | 3.86 |
| O=C(CSc1ccccn1)Nc1nonc1[N+](=O)[O-] | 4.06 |
| Cc1nc2ccccn2c1C(=O)N/N=C/c1ccc([N+](=O)[O-])o1 | 4.35 |
| Cc1cccc(Nc2cc(C)c3c(O)cccc3n2)c1C | 4.76 |
| CCCCCOc1ccc(CSC2=NCCN2)cc1[N+](=O)[O-] | 4.43 |
| Cc1ccc(NNS(=O)(=O)c2ccc(C)cc2)cc1 | 4.27 |
| Cc1cc(=O)[nH]c(-n2nc(C)cc2C)n1 | 4.12 |
| O=[N+]([O-])c1cc(F)c2cccnc2c1O | 5.18 |
| O=C(Cn1nc(C(F)F)cc1C(F)F)NNC(=S)Nc1ccc([N+](=O)[O-])cc1 | 3.86 |
| CCCCCCOC(=O)C[N+](C)(C)CCOC1CC2CCC1(C)C2(C)C (stereo not given) | 4.44 |
| Cc1cc(N2CCC(C)CC2)nc2cccc(O)c12 | 4.11 |
| CC1(C)N=C(N)NC(Nc2ccc(Br)cc2)=N1 | 4.41 |
| C=CC1=C(C(=O)O)N2C(=O)[C@@H](NC(=O)/C(=N/OCC(=O)O)c3csc(N)n3)[C@H]2SC1 | 4.76 |
| Fc1ccccc1CSc1ccc(-c2ccco2)nn1 | 3.87 |
| CC(C)(C)/C(O)=C/c1nc2cc(Cl)ccc2oc1=O | 4.74 |
